Results reported in patent US20150352114A1, “MITOTIC KINESIN Eg5 INHIBITING ANTICANCER AGENTS” (THE CLEVELAND CLINIC FOUNDATION, priority 2014, published 2015).

Test system: GSCs from patient derived xenograft 08-387
Experiment: Measurement of microtubule dynamics, EB1-EGFP
Type: cell-based, human
Conditions: 200 nM; 7 hours
Experimental: GSCs from patient derived xenograft 08-387 were cultured in Neurobasal Media, as previously described. Cells were plated on tissue culture dishes coated with GelTrex (Gibco®, Life Technologies, Carslbad, Calif.) and transfected with EB1-EGFP plasmid using FuGene® HD transfection reagent (Promega Corporation, Madison, Wis.) in a 3:1 (FuGene:DNA) ratio. Cells were transferred to GelTrex-coated 35 mm No. 1.5 glass MatTek dishes (MatTek Corporation, Ashland, Mass.) at a density of 50,000 cells per dish 48 hours following transfection, and allowed to adhere overnight prior to imaging. Dynamics measurements were obtained at 30 minutes and 7 hours following addition of vehicle (DMSO) or ispinesib (200 nM) to cell culture media.
Streaming time-lapse images of EB1-EGFP-expressing cells were acquired at 300 ms per frame for 1 minute (200 total frames) at using a Nikon TiE epifluorescence microscope (Nikon Instruments Inc., Melville, N.Y.) equipped with a Zyla 5.5 sCMOS camera (Andor Technology Ltd., Belfast, Ireland) under control of NIS Elements software (Nikon). Fluorescence illumination during imaging was provided by a SpectraX Light Engine® (Lumencor Inc., Beaverton, Oreg.) and a GFP/mCherry filter set (Chroma Technology Corp., Bellows Falls, Vt.). […]

## Cc1ccc(C(=O)N(CCCN)[C@@H](c2nc3cc(Cl)ccc3c(=O)n2Cc2ccccc2)C(C)C)cc1 [ispinesib, N-(3-amino-propyl)-n-[R-1-(3-benzyl-7-choloro-4-oxo-3,4-dihydroquinazolin-2-yl)-2-methyl-propyl]-4-methyl-benzamide methanesulfonate]
  EB1 comet velocity: significant increase
  microtubule growth times: reduced microtubule growth times
